Results as given in patent US5168101A, “Sulfonamide derivatives” (Ono Pharmaceutical Co., Ltd., priority 1987, dated 1992).

Legend:
[1] = test system: increasing of blood pressure in guinea pigs; assay: Stimulatory effect on increasing of blood pressure in guinea pigs (agonistic effect on TXA2); type: in vivo; conditions: 100 μg/kg, i.v. (n = 2~4)
Text: (§1) For example, in a standard laboratory test, the effects were possible to be confirmed by (i) inhibitory effect on increasing of blood pressure induced by STA2 in guinea pigs (antagonistic effect) and (ii) stimulatory effect on increasing of blood pressure in guinea pigs (agnostic effect).
(§2) Inhibitory effect on increasing of blood pressure induced by TXA2 in guinea pigs and stimulatory effect on increasing of blood pressure in guinea pigs: A 7% sodium bicarbonate buffer solution (pH 7.6~8.6) of each tested compounds was administered intravenously via carotid vein or orally to a urethane-anaesthetized male guinea pig weighing 250~350 g, at a rate of 100 μg/kg animal body weight. Increasing of blood pressure was measured in guinea pigs administered test compounds intravenously. On the other hand, to guinea pigs administered test compounds orally, then a solution of STA2 in phosphate buffer (pH 7.4) was administered. Change of the blood pressure was measured at carotid artery and then inhibition ratio (%) was calculated.

[2] = test system: increasing of blood pressure induced by STA2; assay: Inhibitory effect on increasing of blood pressure induced by STA2 in guinea pigs; type: in vivo; conditions: 100 μg/kg
Method: (iii) Inhibitory effect on increasing of blood pressure induced by STA2 in guinea pigs: A 7% sodium bicarbonate buffer solution (pH 7.6-8.6) of each tested compounds was administered intravenously via carotid vein or orally to a urethane-anaesthetized male guinea pig weighing 250~350 g, at a rate of 10-1000 μg/kg animal body weight. And then guinea pigs were administered intravenously a solution of STA2 in phosphate buffer (pH 7.4). change of the blood pressure was measured at carotid artery and then inhibition ratio (%) was calculated.
as §1, §2

[3] = test system: platelet aggregation induced by STA2 in human blood; assay: Inhibitory effect on platelet aggregation induced by STA2 in human blood; type: cell-based; conditions: platelet aggregation induced by STA2 in human blood (platelet rich plasma, method of Born); read-out: Inhibitory effects on platelet aggregation (IC50)
Text: For example, in a standard laboratory test, the effects were possible to be confirmed by (i) inhibitory effect on platelet aggregation induced by STA2 (9α, 11α-epithio-15α-hydroxy-11α-carbathromba-5Z,13E-dienoic acid) in human blood, (ii) inhibitory effect on contraction of smooth muscle induced by STA2 in guinea pigs or (iii) inhibitory effect on increasing of blood pressure induced by STA2 in guinea pigs (intravenously and orally).
(i) Inhibitory effect on platelet aggregation induced by STA2 in human blood: Whole blood of healthy human adult was collected with citric acid, and the mixture (20 ml) was centrifuged (180×g) for 10 min. The supernatant obtained was diluted with sufficient platelet poor plasma to obtain plasma which contains 300,000 platelet cells power μl. A solution of tested compound in ethanol (1 μl) was added to the obtained plasma (250 μl), and then a solution of STA2 is ethanol was added to the mixtures. The measurement was carried out followed by the method of Born and then IC50 was calculated.

Compound	(ii) Effect of increasing of blood pressure in guinea pig [1] [mmHg]	(i) Duration of more than 50% inhibit increasing of blood pressure induced STA2 pig [2] [min]	IC50 [3] [nM]
Cc1ccc(S(=O)(=O)N[C@H]2[C@H]3CC[C@H](C3)[C@@H]2C/C=C\CCCC(N)=O)cc1	9	> 340	
O=C(O)CCC/C=C\[C@H]1C[C@@H]2CC[C@H]1[C@@H](NS(=O)(=O)c1ccc(Br)cc1)C2 (relative stereo) [1 (a), (5Z)-6-[(1R*, 2R*, 4S*, 6S*)-6-(4-bromobenzenesulfonylamino)bicyclo[2.2.2]octan-2-yl]hex-5-enoic acid]			660
O=C(O)CCC/C=C\[C@H]1C[C@@H]2C[C@H]1[C@@H](NS(=O)(=O)c1ccc(Br)cc1)C2 (relative stereo) [1 (c), (5Z)-6-[(1R*, 2R*, 4R*, 6S*)-6-(4-bromobenzenesulfonylamino)bicyclo[2.2.1]heptan-2-yl]hex-5-enoic acid]			1000
O=C(O)CCC/C=C\[C@@H]1CCC[C@H](NS(=O)(=O)c2ccc(Br)cc2)C1 (relative stereo) [1 (m), (5Z)-6-[(1R*, 3S*)-3-(4-bromobenzenesulfonylamino)cyclohexyl]hex-5-enoic acid]			170
Cc1ccc(S(=O)(=O)NC[C@H]2[C@H]3CC[C@H](C3)[C@@H]2/C=C\CCCC(=O)O)cc1 (relative stereo) [1 (p), (5Z)-6-[(1R*, 2R*, 3S*, 4S*)-3-[N-tosylaminomethyl]bicyclo[2.2.1]heptan-2-yl]hex-5-enoic acid]			90
O=C(O)CCC/C=C\[C@H]1CCCC[C@@H]1CNS(=O)(=O)c1ccc(Br)cc1 (relative stereo) [1 (t), (5Z)-6-[(1R*, 2S*,)-2-[N-(4-bromobenzenesulfonyl)aminometh-yl]cyclohexan-1-yl]hex-5-enoicacid]			520
O=C(O)CCC/C=C\[C@H]1CCC[C@@H]1CNS(=O)(=O)c1ccc(Br)cc1 (relative stereo) [1 (v), (5Z)-6-[(1R, 2S*)-2-[N-(4-bromobenzenesulfonyl)aminomethyl]cyclopentan-1-yl]hex-5-enoic acid]			220
Cc1ccc(S(=O)(=O)NC[C@H]2CCC[C@@H]2/C=C\CCCC(=O)O)cc1 (relative stereo) [1 (w), (5Z)-6-[(1R, 2S*)-2-[N-tosylaminomethyl]cyclopentan-1-yl]hex-5-enoic acid]			680
Cc1ccc(S(=O)(=O)N[C@@H]2C[C@@H]3C[C@H](C/C=C\CCCC(=O)O)[C@H]2C3)cc1 (relative stereo) [4 (a)]			1780
O=C(O)CCC/C=C\[C@@H]1CC[C@H](NS(=O)(=O)c2ccc(Br)cc2)C1 [1 (i), (5Z)-6-[(1R, 3S)-3-(4-bromobenzenesulfonylamino)cyclopentyl]hex-5-enoic acid]			30
O=C(O)CCC/C=C\[C@H]1[C@@H]2CC[C@@H](C2)[C@@H]1CNS(=O)(=O)c1ccccc1 [1 (q), (5Z)-6-[(1R, 2R, 3S, 4S)-3-(N-benzenesulfonylaminomethyl)bicyclo[2.2.1]heptan-2-yl]hex-5-enoic acid]			1670
O=C(O)CCC/C=C\[C@H]1[C@@H]2CC[C@@H](C2)[C@@H]1CNS(=O)(=O)c1ccc(Br)cc1 [1 (r), (5Z)-6[(1R, 2R, 3S, 4S)-3-[N-(4-bromobenzenesulfonyl)aminomethyl]bicyclo[2.2.1]heptan-2-yl]hex-5-enoic acid]			280
Cc1ccc(S(=O)(=O)NCC2C3CCC(C3)C2C=CCCCC(=O)O)cc1 [1 (s), (5Z)-6-[(1S, *2S*, 3S*, 4R*)-3-[N-tosylaminomethyl]bicyclo[2.2.1]heptan-2-yl]hex-5-enoic acid]			520
O=C(O)CCC/C=C\[C@H]1[C@@H]2CC[C@@H](C2)[C@@H]1CCNS(=O)(=O)c1ccc(Br)cc1 [1 (u), (5Z)-6-[(1R, 2R, 3S, 4S)-3-[2-[N-(4-bromobenzenesulfonyl)amino]ethyl]bicyclo[2.2.1]heptan-2-yl]hex-5-enoic acid]			1000
Cc1ccc(S(=O)(=O)NC[C@@H]2[C@@H]3CC[C@@H](C3)[C@H]2/C=C\CCCC(=O)O)cc1 [1 (x), (5Z)-6-[(1S, 2S, 3R, 4R)-3-[N-tosyl-aminomethyl]bicyclo[2.2.1]heptan-2-yl]hex-5-enoic acid]			50
O=C(O)CCC/C=C\[C@@H]1[C@H]2CC[C@H](C2)[C@H]1CNS(=O)(=O)c1ccc(Br)cc1 [1 (y), (5Z)-6-[(1S, 2S, 3R, 4R)-3-[N-(4-bromobenzenesulfonyl)aminomethyl]bicyclo[2.2.1]heptan-2-yl]hex-5-enoic acid]			10
CCCCCCCCOC(=O)CCC/C=C\[C@@H]1[C@H]2CC[C@H](C2)[C@H]1CNS(=O)(=O)c1ccc(Br)cc1 [5 (g), octyl(5Z)-6-[(1S, 2S, 3R, 4R)-3-[N-(4-bromobenzenesulfonyl)aminomethyl]bicyclo[2.2.1]heptan-2-yl]hex-5-enoate]	1	> 300	
CC(C)[C@@H]1CC[C@@H](C)C[C@H]1OC(=O)CCC/C=C\[C@@H]1[C@H]2CC[C@H](C2)[C@H]1CNS(=O)(=O)c1ccc(Br)cc1 [5 (h), menthyl(5Z)-6-[(1S, 2S, 3R, 4R)-3-[N-(4-bromobenzenesulfonyl)aminomethyl]bicyclo[2.2.1]heptan-2-yl]hex-5-enoate]	1	> 300	
NC(=O)CCC/C=C\[C@@H]1[C@H]2CC[C@H](C2)[C@H]1CNS(=O)(=O)c1ccc(Br)cc1 [6 (d), (5Z)-6-[(1S, 2S, 3R, 4R)-3[N-(4-bromobenzenesulfonyl)aminomethyl]bicyclo[2.2.1]heptan-2-yl]hex-5-enamide]	6	> 240	
Cc1ccc(S(=O)(=O)N[C@H]2[C@H]3CC[C@H](C3)[C@@H]2C/C=C\CCCC(=O)NC(C)C(=O)O)cc1 (stereo partly drawn) [7 (b), amide of (5Z)-7-[(1R, 2S, 3S, 4S)-3-tosylaminobicyclo[2.2.1]heptan-2-yl]hept-5-enoic acidand alanine]	11	> 290	
Cc1ccc(S(=O)(=O)N[C@H]2[C@H]3CC[C@H](C3)[C@@H]2C/C=C\CCCC(=O)NC(CCC(=O)O)C(=O)O)cc1 (stereo partly drawn) [7 (c), amide of (5Z)-7-[(1R, 2S, 3S, 4S)-3-tosylaminobicyclo[2.2.1]heptan-2-yl]hept-5-enoic acidand glutamic acid]	7	> 290	
Cc1ccc(S(=O)(=O)N[C@H]2[C@H]3CC[C@H](C3)[C@@H]2C/C=C\CCCC(=O)NCC(=O)O)cc1 [Example 7, Amide of (5Z)-7-[(1R, 2S, 3S, 4S)-3-tosylaminobicyclo [2.2.1]heptan-2-yl]hept-5-enoic acid and glycine]	9	> 270	
Cc1ccc(S(=O)(=O)N[C@H]2[C@H]3CC[C@H](C3)[C@@H]2C/C=C\CCCC(=O)N[C@@H](CCCCN)C(=O)O)cc1 [Example 8, Amide of (5Z)-7-[(1R, 2S, 3S, 4S)-3-tosylaminobicyclo [2.2.1]heptan-2-yl]hept-5-enoic acid and lysine]	7	305	
Cc1ccc(S(=O)(=O)N[C@H]2[C@H]3CC[C@H](C3)[C@@H]2C/C=C\CCCC(=O)O)cc1 [The compared compound, reference compound]	36	205	
